Data on 1 molecule can be found in patent US9750742B2, “Small molecular inhibitors of RAD51 recombinase and methods thereof” (Drexel University, priority 2011, dated 2017).

Each structure is given as a SMILES string.

Experiment [1] concerns I-SceI. Description: Western blotting, I-SceI expression level. The conditions noted are these: with or without B02. The format is cell-based. Here is the method: Then, both pCBASce-transfected and untransfected cells were trypsinized and resuspended in DMEM supplemented with 10% FBS, 100 units/ml penicillin and 100 μg/ml streptomycin. The suspensions were centrifuged at 1000×g for 5 min at 4° C., the pellets were washed 3 times with cold PBS and then resuspended in lysate buffer containing 50 mM HEPES (pH 7.5), 50 mM NaCl, 5 mM EDTA, 1% Triton X-100, 50 mM NaF, and 10 mM Na4P2O7, 1 mM phenylmethylsulfonyl fluoride (PMSF) and proteinase inhibitor cocktail (Roche Applied Science) for 30 min at 4° C. The cell lysates were centrifuged at 16000×g, for 15 min at 4° C. The supernatants were collected and protein concentrations were determined by the Bradford assay using bovine serum albumin (BSA) as a standard. Equivalent amounts of proteins were loaded on 12% SDS-PAGE gels and after electrophoretic separation were transferred on a PVDF membrane (Osmonics, Inc). […] Immunoblot signals were detected using Enhanced Chemiluminescence (ECL) reagent (Pierce). […]
For orientation: Immunoblotting shows a protein as a band on a membrane.

The target in experiment [2] is T1, RAD51 (Homo sapiens, UniProt Q06609).
T1 construct: made in house
T1 sequence (Q06609 1-339): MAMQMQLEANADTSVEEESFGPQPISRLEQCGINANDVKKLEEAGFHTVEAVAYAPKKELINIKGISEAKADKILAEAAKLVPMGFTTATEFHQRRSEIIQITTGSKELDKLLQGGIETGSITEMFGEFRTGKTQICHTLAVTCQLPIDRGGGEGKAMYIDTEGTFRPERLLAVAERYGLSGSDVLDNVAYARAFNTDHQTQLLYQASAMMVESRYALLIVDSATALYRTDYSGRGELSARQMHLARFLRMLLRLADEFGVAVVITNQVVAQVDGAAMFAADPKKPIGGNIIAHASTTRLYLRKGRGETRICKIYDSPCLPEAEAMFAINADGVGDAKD
Description: DNA binding assay (RAD51-ssDNA complexes). The following applies: B02 25 μM, without NaCl challenge. The format is biochemical. Here is the method: DNA binding assay was performed as described (Bugreev et al., 2005, J. Biol. Chem. 280:26886-95). […] After 10 min, reactions was mixed with 0.2 vol of loading buffer and loaded on 10% polyacrylamide gels (135 V, 20 mA) in 0.5×TBE buffer containing 45 mM Tris borate (pH 8.3) and 0.25 mM EDTA. Gels were quantified using a Storm 840 PhosphorImager.

The test system of experiment [3] is RAD51. Description: Western blotting, RAD51 expression level. In kind it is cell-based, human. The following applies: B02 20 μM versus no treatment.
Description: The pellets were washed three times with cold PBS and then resuspended in lysis buffer containing 50 mM HEPES, pH 7.5, 50 mM NaCl, 5 mM EDTA, 1% Triton X-100, 50 mM NaF, and 10 mM Na4P2O7, 1 mM PMSF, and proteinase inhibitor cocktail (Roche Applied Science) for 30 min at 4° C. The cell lysates were centrifuged at 16,000×g, for 15 min at 4° C., and then the supernatants were collected and protein concentrations were determined using the Bradford assay. Aliquots containing 50 Ξg of total protein were analyzed by 12% SDS-PAGE. […]
Then, both pCBASce-transfected and untransfected cells were trypsinized and resuspended in DMEM supplemented with 10% FBS, 100 units/ml penicillin and 100 μg/ml streptomycin. […] The supernatants were collected and protein concentrations were determined by the Bradford assay using bovine serum albumin (BSA) as a standard. […] Immunoblot signals were detected using Enhanced Chemiluminescence (ECL) reagent (Pierce). […]
Experiment [4] deals with T2, RecA (Escherichia coli, UniProt P0A7G6).
T2 construct: purchased USB Inc. (Cleveland, Ohio)
T2 sequence (P0A7G6 whole entry): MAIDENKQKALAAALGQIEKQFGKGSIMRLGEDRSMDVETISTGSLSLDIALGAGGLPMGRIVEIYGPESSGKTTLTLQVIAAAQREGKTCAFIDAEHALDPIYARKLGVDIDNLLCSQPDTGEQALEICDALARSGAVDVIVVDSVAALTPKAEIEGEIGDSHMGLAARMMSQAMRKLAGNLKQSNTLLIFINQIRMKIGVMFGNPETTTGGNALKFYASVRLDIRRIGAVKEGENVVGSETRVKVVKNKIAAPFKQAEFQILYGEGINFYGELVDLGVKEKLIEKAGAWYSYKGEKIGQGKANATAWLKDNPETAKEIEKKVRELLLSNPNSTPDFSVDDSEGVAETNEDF
Description: Branch migration assay, RecA. In kind it is biochemical, E. coli. The following applies: B02 10-100 μM.
Description: Branch migration was initiated by addition of ^32P-labeled 5′-joint molecules (0.1 nM, molecules) that were produced by RecA-promoted reaction and was carried out for 30 min. The DNA products were deproteinized and analyzed in 1.5% agarose-TAE gels and quantified using a Storm 840 PhosphorImager (GE Healthcare).

With `O=c1c2ccccc2nc(/C=C/c2cccnc2)n1Cc1ccccc1` [Compound B02, (E)-3-benzyl-2-(2-(pyridin-3-yl)vinyl)quinazolin-4(3H)-one], the “expression of I-SceI protein” value in experiment [1] is recorded as “did not affect”. This molecule gave a loss of filaments in experiment [2] of 20%. Besides, in experiment [3], the “expression of RAD51” value is on record as “comparable”. The “inhibition of branch migration activity of RecA” value in experiment [4] was “did not inhibit”.
